From patent US11203636B2, “Treatment of existing left ventricular heart failure” (YALE UNIVERSITY, priority 2017, dated 2021)

How the values were obtained:
[1] = system: NKCC2, ENaC-beta, and NCC proteins in mouse M1 CCD cell line; assay: Expression of NKCC2, ENaC-beta and NCC in M1 CCD cells after treatment with IL-6 and/or Spironolactone (immunoblotting); format: cell-based; conditions: FIGS. 5A-5C
Procedure: (§1) The mouse M1 CCD cell line (American Type Culture Collection (ATCC), Cat #CRL-2038) was maintained the cell culture medium containing equal amount of DMEM (Sigma-Aldrich, Cat #D6046) and Han F12 (Sigma-Aldrich, Cat #11765-047), supplemented with 5% Fetal Bovine Serum (FBS), 1% Penicillin-Streptomycin (Thermo Fisher Scientific, Cat #15140-122), 1% Insulin-Transferrin-Selenium (Thermo Fisher Scientific, Cat #51500-056) and 100 nM Dexamethasone (Sigma-Aldrich, Cat #D4902-100MG).
(§2) M1 CCD cells were seeded at 1 million/well in 6-well plate in the cell culture medium, and incubated overnight in a 37° C., 5% CO2 incubator on Day 0. The cell culture medium was changed to DMEM/F12 serum-free medium on Day 1 and the cells were incubated overnight in a 37° C., 5% CO2 incubator. On Day 2, the serum-free medium was removed and the cell culture medium was added to each well. Spironolactone (Selleckchem, Cat #54054) was added at the final concentration of 1 μM or 100 μM 10 min before the addition of IL-6 (Sigma-Aldrich, Cat #SRP3096-20UG) at the final concentration of 10 ng/mL, 100 ng/mL, or 500 ng/mL. A control well without Spironolactone or IL-6 was included. […] The sample were analyzed by immunoblotting using anti-NKCC2 antibody (Millipore, Cat #AB3562P), anti-ENaC-beta antibody (Millipore, Cat #AB3532P), or anti-NCC antibody (Millipore, Cat #AB3553) and the protein expression was quantified. […]

[2] = system: NKCC2, ENaC-beta, and NCC proteins in mouse M1 CCD cell line; assay: Expression of NKCC2, ENaC-beta and NCC in M1 CCD cells after treatment with IL-6 and/or Ruxolitinib (immunoblotting); format: cell-based; conditions: IL-6 10, 100 or 500 ng/mL, 24 hours, FIGS. 4A-4C
Procedure: as §1
as §2, with “Ruxolitinib” for “Spironolactone”, “#51378)” for “#54054)”

Compound	effect of Spironolactone on the IL-6 effect on ion transporter proteins (NKCC2, ENaC-beta, NCC) ([1]; Spironolactone 1 μM or 100 μM added 10 min before IL-6, 24 hours)	expression of NKCC2, ENaC-beta, and NCC after treatment of IL-6 ([1]; IL-6 10, 100 or 500 ng/mL, 24 hours, immunoblotting)	expression of NKCC2, ENaC-beta, and NCC after treatment of IL-6 [2]
CC(=O)S[C@@H]1CC2=CC(=O)CC[C@]2(C)[C@H]2CC[C@@]3(C)[C@@H](CC[C@@]34CCC(=O)O4)[C@H]12 [Spironolactone]	blocked the effect of IL-6 on the ion transporter proteins		
IL-6: pro-inflammatory cytokine added to cells (Sigma-Aldrich, Cat #SRP3096-20UG)		increased the expression of NKCC2, ENaC-beta, and NCC	increased the expression of NKCC2, ENaC-beta, and NCC
